The values below are quoted from earlier work in patent publication US9782432B2, “Polymers and methods thereof for wound healing” (RUTGERS, THE STATE UNIVERSITY OF NEW JERSEY, priority 2012, dated 2017).

Where two headings read alike, the source gives them in different places.

In data set [1] the test system is adhesion formation. The settings on record: rats, IP injection.
The subject of data set [2] is adhesion formation. The settings on record: rats with intact pineal glands, injections of melatonin.
Data set [3] has as its system adhesion formation. Particulars: dog, IP injection.
For data set [4], the system named is adhesions. Particulars: IP injections, rat model.
The test system of data set [5] is adhesion formation.
In data set [6] the test system is adhesions. Particulars: 0.35, 0.7 or 1.4 mg every 6 hours for 48 or 96 hours.
For data set [7], the system named is adhesions.
Data set [8] relates to adhesions. Particulars: 5 mg/kg/day intramuscularly, 7 days.

In the case of `COc1ccc2[nH]cc(CCNC(C)=O)c2c1` [melatonin], the adhesion formation entry with adhesion formation [1] was “significantly reduce abdominal adhesion formation”; with adhesion formation [3], “significantly reduce adhesion formation”. Further, in the data set on adhesion formation [2], the adhesions vs control entry is given as “significantly less adhesions than the control”.
On to vitamin E, for which the “efficacy compared with Seprafilm” value with adhesions [4] is “as effective as Seprafilm”. Also, the “reduction of adhesion formation” value with adhesion formation [5] (IP injection) is given as 80%; in the data set with adhesion formation [5] (oral or intramuscular administration), “not when administered orally or intramuscularly”. Further, the abdominal adhesion formation result in the data set on adhesion formation [5] (rats, injected intraperitoneally) was “significantly reduce abdominal adhesion formation”.
For the compound `CC(=O)Oc1ccccc1C(=O)O` [aspirin, acetylsalicylic acid], the “adhesions vs untreated control” value with adhesions [6] was “no group was significantly different from the untreated control”. In addition, the adhesion rate in the data set with adhesions [7] (1.7 mg/kg/day for 5 days after surgery) is recorded as 44%; with adhesions [7] (28.0 mg/kg/day for 5 days after surgery), 77%.
Take `O=C(O)COC(=O)Cc1ccccc1Nc1c(Cl)cccc1Cl` [aceclofenac]: in the data set with adhesions [8], the “decrease in fibroblasts at the injury site” value is listed as 8% and the “fibrous area, treatment vs control group” value is “significant difference”.
